# Target: T1, human dopamine D2 receptor (Homo sapiens, UniProt P14416)
# T1 construct: accorded to it of human dopamine D2 receptor (NM1-000795) registered on NCBI completely; expressed in transfected cells; membrane homogenates
# Test: Stimulating activities on human dopamine D2 receptor, [35S]GTPγS binding to hD2R#7 cell membrane homogenates
# Assay type: biochemical
# Conditions: [35S]GTPγS binding, membrane homogenates of HEK293 cells stably expressing human D2 receptor; mean, n=2; read-out: EC50
# Protocol: Identification Test of Stimulating Activities on Human Dopamine D2 Receptor
# 4) Preparation of Membrane Homogenates from hD2R#7 Cells
# (2) Preparation of Membrane Homogenates from hD2R#7 Cells
# The cells, which were grown to confluence in 150 mm dishes (IWAKI), were harvested with isotonic buffer (50 mM Tris (Sigma), 2 mM ethylenediamine-tetraacetic acid (Invitrogen), and 125 mM sodium chloride (Wako Pure Chemicals), pH 7.4) and centrifuged at 1880×g and 4° C. for 10 minutes, and the cell pellets were then suspended in isotonic buffer. After being subjected to one cycle of freezing and thawing, the cells were centrifuged at 1880×g and 4° C. for 10 minutes, and the cell pellets were suspended in isotonic buffer. The cells were centrifuged at 1880×g and 4° C. for 10 minutes, and the cell pellets were suspended in isotonic buffer and homogenate buffer (10 mM sodium bicarbonate (Nacalai) and 5 mM ethylenediamine-tetraacetic acid, pH 7.5). The volume ratio of isotonic-to-homogenate buffer was 2. The cells were sonicated and centrifuged at 1880×g and 4° C. for 10 minutes, and the supernatants were ultracentrifuged at 80000×g and 4° C. for 30 minutes. The final cell pellets were suspended in homogenate buffer containing protease inhibitor cocktail (Nacalai) and stored at −80° C. until use. The protein concentration was determined using BCA Protein Assay Kit (Pierce) in accordance with the manufacturer's instructions.
# 5) Determination of Stimulating Activities of Human Dopamine D2 Receptor
# The stimulating activities of human dopamine D2 receptor was determined by measuring the binding potential of [^35S]-guanosine 5′-[gamma-thio]triphosphate ([^35S]GTPγS, PerkinElmer) according to the method described by Newman-Tancredi A. et al. (Naunyn-Schmiedeberg's Arch Pharmacol, 1999, vol. 359, pp. 447-453) with a minor modification. Test compounds and dopamine hydrochloride (Fluka) as positive control were dissolved in dimethyl sulfoxide (CARLBIOCHEM), resulting in 30 mM. The both compounds were diluted with assay buffer (50 mM Tris, 100 mM sodium chloride, 5 mM magnesium chloride (Nacalai), 1 mM ethylenediamine-tetraacetic acid, 1 mM dithiothreitol (Wako Pure Chemicals), 10 μM guanosine diphosphate (Wako Pure Chemicals) and 0.5% bovine serum albumin (Sigma), pH 7.4) to a final concentration of 100 pM (only test compounds), 1 nM, 10 nM, 100 nM, 1 μM, 10 μM and 100 μM (only dopamine hydrochloride). The above membrane homogenates and [^35S]GTPγS were diluted with assay buffer to a final concentration of 0.06 mg/mL and 0.6 nM, respectively. The serial diluted compounds (50 μL), the diluted membrane homogenates (50 μL) and the diluted [^35S]GTPγS (50 μL) were mixed on multi-screen 96-well plate (Millipore) and shaken lightly at room temperature for 60 minutes. The reaction was terminated by vacuum filtration with three times washes of ice-cold wash buffer (50 mM Tris, 100 mM sodium chloride, 5 mM magnesium chloride, and 1 mM ethylenediamine-tetraacetic acid, pH 7.4). After drying the bottoms of the plate at 60° C., MicroScinti-40 (PerkinElmer) (30 μL) was added in the plate. The tops of the plate were sealed by TopSeal-A (PerkinElmer), and the radioactivity was determined in a TopCount NXT (registered mark) (PerkinElmer) after shaking lightly for 5-10 minutes. The data was analyzed by nonlinear regression and sigmoidal dose-response curve fitting using GraphPad PRISM 4.0 (GraphPad Software), and values of EC50 (concentration of the compound producing half the maximal effect of the compound) were calculated. The data was presented as mean value (n=2).
# T1 sequence (P14416 whole entry): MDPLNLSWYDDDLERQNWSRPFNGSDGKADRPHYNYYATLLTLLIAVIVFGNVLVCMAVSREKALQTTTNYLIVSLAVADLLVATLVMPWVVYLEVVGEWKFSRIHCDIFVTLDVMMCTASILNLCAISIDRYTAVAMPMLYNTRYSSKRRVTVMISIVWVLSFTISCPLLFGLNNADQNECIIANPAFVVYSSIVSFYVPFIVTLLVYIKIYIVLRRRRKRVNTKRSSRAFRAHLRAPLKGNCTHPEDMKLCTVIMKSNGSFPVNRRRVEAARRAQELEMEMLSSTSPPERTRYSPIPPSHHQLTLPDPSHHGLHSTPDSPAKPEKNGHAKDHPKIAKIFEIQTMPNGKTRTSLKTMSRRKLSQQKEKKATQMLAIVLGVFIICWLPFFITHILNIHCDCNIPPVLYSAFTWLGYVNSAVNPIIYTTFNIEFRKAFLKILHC
row,EC50,Compound
1,5 nM,"CCN(C(=O)N[C@@H](C)CN(C)C)C(=O)[C@@H]1C[C@@H]2Cc3c(sc(N)c3C#N)C[C@H]2N(C)C1 [1-57, 1-{[(4aR,6R,8aR)-2-amino-3-cyano-8-methyl-4H,4aH,5H,6H, 7H,8H,8aH,9H-thieno[3,2-g]quinolin-6-yl]carbonyl}-3-[(2S)-1-(dimethylamino)propan-2-yl]-1-ethylurea]"
2,3 nM,"CCN(C(=O)NCC(C)(C)CN(C)C)C(=O)[C@@H]1C[C@@H]2Cc3c(sc(N)c3C#N)C[C@H]2N(C)C1 [1-4, 1-{[(4aR,6R,8aR)-2-amino-3-cyano-8-methyl-4H,4aH,5H,6H,7H,8H,8aH,9H-thieno[3,2-g]quinolin-6-yl]carbonyl}-3-[3-(dimethylamino)-2,2-dimethylpropyl]-1-ethlylurea]"
3,17 nM,"CCCCN(C(=O)NCCN(C)C)C(=O)[C@@H]1C[C@@H]2Cc3c(sc(N)c3C#N)C[C@H]2N(C)C1 (relative stereo) [1-24, 1-{[(4aR*,6R*,8aR*)-2-amino-3-cyano-8-methyl-4H,4aH,5H,6H,7H,8H,8aH,9H-thieno[3,2-g]quinolin-6-yl]carbonyl}-1-butyl-3-[2-(dimethylamino)ethyl]urea]"
4,7 nM,"CCCCN(C(=O)NCCN(CC)CC)C(=O)[C@@H]1C[C@@H]2Cc3c(sc(N)c3C#N)C[C@H]2N(C)C1 [1-3, 1-{[(4aR,6R,8aR)-2-amino-3-cyano-8-methyl-4H,4aH,5H,6H,7H,8H,8aH,9H-thieno[3,2-g]quinolin-6-yl]carbonyl}-1-butyl-3-[2-(diethylamino)ethyl]urea]"
5,6 nM,"CCCN(C(=O)NCCN(C)C)C(=O)[C@@H]1C[C@@H]2Cc3c(sc(N)c3C#N)C[C@H]2N(C)C1 [1-1, 1-{[(4aR,6R,8aR)-2-amino-3-cyano-8-methyl-4H,4aH,5H, 6H,7H,8H,8aH,9H-thieno[3,2-g]quinolin-6-yl]carbonyl}-3-[2-(dimethylamino)ethyl]-1-propylurea]"
6,32 nM,"CC(C)CCN(C(=O)NCCN(C)C)C(=O)[C@@H]1C[C@@H]2Cc3c(sc(N)c3C#N)C[C@H]2N(C)C1 (relative stereo) [1-43, 1-{[(4aR*,6R*,8aR*)-2-amino-3-cyano-8-methyl-4H,4aH,5H,6H,7H,8H,8aH,9H-thieno[3,2-g]quinolin-6-yl]carbonyl}-3-[2-(dimethylamino)ethyl]-1-(3-methylbutyl)urea]"
7,10 nM,"CCCCN(C(=O)NCCN1CCCCC1)C(=O)[C@@H]1C[C@@H]2Cc3c(sc(N)c3C#N)C[C@H]2N(C)C1 (relative stereo) [1-46, 1-{[(4aR*,6R*,8aR*)-2-amino-3-cyano-8-methyl-4H,4aH,5H,6H,7H,8H,8aH,9H-thieno[3,2-g]quinolin-6-yl]carbonyl}-1-butyl-3-[2-(piperidin-1-yl)ethyl]urea]"

row,Compound,EC50
1,"CCCN(CCC)CCc1cccc2c1CC(=O)N2 [Ropinirole, ropinirole, reference compound]",892 nM
2,"CCN(C(=O)NCCN(C)C)C(=O)[C@@H]1C[C@@H]2Cc3c(sc(N)c3C#N)C[C@H]2N(C)C1 [1-108, 1-{[(4aR,6R,8aR)-2-amino-3-cyano-8-methyl-4H,4aH,5H,6H,7H,8H,8aH,9H-thieno[3,2-g]quinolin-6-yl]carbonyl}-3-[2-(dimethylamino)ethyl]-1-ethylurea]",6 nM
